Experiment [1] deals with SMN2-luciferase reporter construct. As to the kind of experiment: SMN2-luciferase splicing reporter luminescence assay in C33A cells. The format is cell-based, human. On the procedure:
(§1) In a screen to identify compounds capable of enhancing the inclusion of exon 7 in SMN2 mRNA, cells of the human cervical carcinoma cell line C33A (ATCC#HTB-31) were stably transformed with an SMN fragment/luciferase reporter gene construct that incorporated exons 6-8 of SMN1 or SMN2 for use in a high-throughput screening assay. These cells were cultured in Dulbecco's Modified Eagle's Medium (DMEM) with 10% Fetal Bovine Serum (Sigma F 2442), 50 units/mL penicillin 50 μg/mL streptomycin sulfate and 400 mg/L G418 (i.e. Geneticin, Gibco, cat. No. 11811-031). The assay medium used to perform the luciferase assay was identical to the growth medium except the G418 selection agent was omitted. To perform the luciferase assay, a single reagent (25 mM glycylglycine, 15 mM magnesium sulfate, 4 mM EGTA, adjusted to pH 7.85, to which is added 10 μM D-luciferin (Sigma L9504), 10 mM dithiothreitol (DTT, Roche Molecular Biochemicals 100034), 2 mM adenosine 5′-triphosphate (ATP, Sigma A7699), 50 μM CoenzymeA, sodium salt (Sigma C 3144) and 1.5% Triton X-100) was used to lyse the cells and to initiate the luciferase reaction.
(§2) Using this cell-based luminescence assay, a screen was performed to identify compounds that modulate SMN splicing. Stably transfected C33A cells (˜35-40 M cells/flask) were cultured, then removed from T-175 culture flasks with 3 mL trypsin, and quenched with 7 mL assay medium. The cells were spun down and re-suspended in assay medium to a concentration of ˜200,000 cells/mL. Cells were immediately seeded in 384-well assay plates (Nalge Nunc white plates, #164610) 57 μL/well for a cell density of 11,000 cells/well. Compounds from a library obtained from the National Institute of Neurological Disorders and Stroke (NINDS) were added to the cells to a final concentration of 10 μM (diluted with assay medium by 1000× from the 10 mM stock solution in DMSO). The cells were incubated with the test compounds at 37° C. for ˜48 hr. A Zymark Sciclone ALH was used for cell seeding and compound addition. After incubation, the assay plates were cooled to room temperature for ˜10-60 minutes. The medium and compounds were aspirated from the wells, followed by 6 rinse/aspirate cycles with a PBS solution. 53 μL of the luciferase assay reagent was added and the plate was immediately transferred to a luminescence plate reader. The plate was shaken for 30 minutes prior to reading. The plate processing steps were performed on an integrated Packard Minitrak/Sidetrak platereader.
(§3) To analyze the data, the dark count background was first subtracted from all luminescence readings. The signal from each compound treated well was divided by the average of 48 control wells on the same 384-well plate. Each compound library plate was tested in triplicate with each of the two cell lines, and the entire assay was repeated on two separate occasions, yielding six readings for each compound for each cell line. The highest and lowest of the six normalized readings were dropped and the remaining four readings averaged. These average values of compound-treated luminescence versus control luminescence are denoted “Xnorm(y)”, where X indicates the cell line, SMN1-luciferase or SMN2-luciferase, and y represents the compound. The difference of [SMN2norm(y)−SMN1norm(y)] measures the selective change in SMN2-luciferase expression versus change in SMN1 luciferase production upon treatment with compound y. This is the final score that is output.
(§4) These dilutions were created with a Zymark Sciclone ALH Z-8. Once created, the assay was performed as described for the screening process. Concentrations required to achieve 50% of the maximally achievable effect for each compound (“EC50”) were calculated using Xlfit (IDBS).

For experiment [2], the system named is SMN1-luciferase control. As to the kind of experiment: SMN1-luciferase control splicing reporter luminescence assay in C33A cells. The format is cell-based, human. On the procedure:
as §1, §2, §3, §4

The subject of experiment [3] is SMN2-luciferase reporter construct. Briefly: SMN2-luciferase splicing reporter luminescence assay in NSC34 cells. The format is cell-based, mouse. The source says: For example, when luciferase is used as the reporter gene in an SMN splicing assay, synthesis of full-length protein can be monitored by luminescence; positive drug candidates will elicit an increase in the amount of luminescence produced from an SMN2-luciferase cassette, which is normally inefficiently spliced, but will not affect the level of luminescence in cells expressing the SMN1-luciferase reporter (because SMN1 transcripts are normally spliced to include exon 7 about 100% of the time). ELISA, Western blotting or gem counts (obtained using indirect immunofluorescence microscopy) can be used to verify the increase in SMN2-luciferase protein levels, and analysis by RNAase protection, Northern blot or RT-PCR, such as quantitative or semiquantitative, can be used to determine whether the effect of the compound is at the level of splicing or mRNA stability. Identification of a role for indoprofen or analogs of this compound in SMN splicing in vitro can be achieved through the generation of stable cell lines expressing the SMN-reporter gene (e.g., SMN-luciferase) splicing cassette. For example, the embryonic mouse spinal cord cell line NSC34 and the human cervical carcinoma cell line C33A can be used for the methods of the invention. […]

In the case of `CC(Cc1ccccc1)C(=O)O` (stereo not drawn) [Alpha-methylhydrocinnamic acid], the “Effect on splicing of SMN2-luciferase in C33A cells” value in experiment [1] was “Decreased”. The “Effect on splicing of SMN1-luciferase control in C33A cells” value in experiment [2] is reported as “Decreased”. For the same compound, in experiment [3], the “Effect on splicing of SMN2-luciferase in NSC34 cells” value is given as “(no effect in NSC34”.

Values taken from US20090031435A1, “SMA Therapy and Cell Based Assay” (priority 2002, published 2009).
